Assays:
[1] = Fraction unbound in human plasma; assay type: ADME, cell-free
[2] = Unbound brain to plasma concentration ratio in Sprague-Dawley rat at 0.2 mg/kg, iv measured for 0.25 hrs; assay type: ADME, organism-based; conditions: brain and plasma, read-out: K(p,uu,brain)
[3] = Brain to plasma partition coefficient, Kp of the compound in Sprague-Dawley rat at 0.2 mg/kg, iv measured for 0.25 hrs; assay type: ADME, organism-based; conditions: brain and plasma
[4] = Intrinsic clearance in human microsomes; assay type: ADME, Microsome
[5] = Intrinsic clearance in rat microsomes; assay type: ADME, Microsome
[6] = Fraction unbound in rat brain; assay type: ADME, tissue-based
[7] = Fraction unbound in rat plasma; assay type: ADME, cell-free
[8] = target: Muscarinic acetylcholine receptor M4 (Homo sapiens) (UniProt P08173); experiment: Positive allosteric modulation of human M4 receptor expressed in CHO cells co-expressing Gqi5 assessed as increase in acetylcholine-induced calcium mobilization incubated with EC20 ACh for 140 secs and subsequent EC80 Ach addition further incubated for 120 secs by Fluo-4-AM dye based fluorescence …
Muscarinic acetylcholine receptor M4 (Homo sapiens), sequence (P08173 whole entry, looked up): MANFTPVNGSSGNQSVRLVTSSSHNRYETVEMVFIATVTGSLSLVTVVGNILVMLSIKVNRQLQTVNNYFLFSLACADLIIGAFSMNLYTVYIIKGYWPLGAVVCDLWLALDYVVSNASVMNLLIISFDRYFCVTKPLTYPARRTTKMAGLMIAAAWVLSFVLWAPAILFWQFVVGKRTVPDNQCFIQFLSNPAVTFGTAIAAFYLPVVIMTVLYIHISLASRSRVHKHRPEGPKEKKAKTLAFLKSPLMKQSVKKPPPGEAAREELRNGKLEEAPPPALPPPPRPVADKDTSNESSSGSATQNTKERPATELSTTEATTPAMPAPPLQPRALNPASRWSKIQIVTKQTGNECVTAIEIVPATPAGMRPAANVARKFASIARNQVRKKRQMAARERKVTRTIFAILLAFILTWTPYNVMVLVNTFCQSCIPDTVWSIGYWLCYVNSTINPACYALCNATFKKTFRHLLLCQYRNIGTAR

fraction unbound [1] | Kp uu at 0.25 h [2] | Kp at 0.25 h [3] | CLint scaled [4] | CLint scaled [5] | fraction unbound [6] | fraction unbound [7] | Emax [8] | SMILES
0.032 | 0.09 | 0.03 | 54 mL/min/kg | 12 mL/min/kg | 0.009 | 0.026 | 82% | Cc1nnc2ccc(C(=O)NC3CN(c4ncc(Cl)cc4F)C3)cc2c1C
 |  |  |  |  |  |  | 77% | Cc1nnc2ccc(C(=O)NC3CN(c4cccc(Cl)n4)C3)cc2c1C
 |  |  |  |  |  |  | 84% | Cc1nnc2ccc(C(=O)NC3CN(c4cccc(F)n4)C3)cc2c1C
 |  |  |  |  |  |  | 77% | Cc1nnc2ccc(C(=O)NC3CN(c4ncc(C(F)(F)F)cn4)C3)cc2c1C
 |  |  |  |  |  |  | 81% | Cc1nnc2ccc(C(=O)NC3CN(c4ccc(OC(F)F)nc4)C3)cc2c1C
 |  |  |  |  |  |  | 88% | Cc1nnc2ccc(C(=O)NC3CN(c4ncc(OC(C)C)cn4)C3)cc2c1C
 |  |  |  |  |  |  | 76% | Cc1nnc2ccc(C(=O)NC3CN(c4ncc(C(F)(F)F)cc4Cl)C3)cc2c1C
 |  |  |  |  |  |  | 73% | Cc1nnc2ccc(C(=O)NC3CN(c4ccc(Cl)cn4)C3)cc2c1C
 |  |  |  |  |  |  | 83% | Cc1nnc2ccc(C(=O)NC3CN(c4ncccc4F)C3)cc2c1C
 |  |  |  |  |  |  | 77% | Cc1nnc2ccc(C(=O)NC3CN(c4ncc(C5CC5)cc4Cl)C3)cc2c1C
 |  |  |  |  |  |  | 84% | Cc1nnc2ccc(C(=O)NC3CN(c4ncccc4Cl)C3)cc2c1C
 |  |  |  |  |  |  | 81% | Cc1nnc2ccc(C(=O)NC3CN(c4ccc(C#N)cn4)C3)cc2c1C
0.06 | 0.06 | 0.03 | 60 mL/min/kg | 32 mL/min/kg | 0.036 | 0.017 | 92% | Cc1nnc2ccc(C(=O)NC3CN(c4cc(Cl)ncc4Cl)C3)cc2c1C
0.051 | < 0.56 | < 0.05 | 50 mL/min/kg | 26 mL/min/kg | 0.022 | 0.002 | 82% | Cc1nnc2ccc(C(=O)NC3CN(c4ccc(F)c(F)c4)C3)cc2c1C
 |  |  |  |  |  |  | 80% | Cc1nnc2ccc(C(=O)NC3CN(c4cnc(C5CC5)cn4)C3)cc2c1C
 |  |  |  |  |  |  | 64% | Cc1nnc2ccc(C(=O)NC3CN(c4cccc(C(F)(F)F)n4)C3)cc2c1C
0.03 | 0.21 | 0.04 | 63 mL/min/kg | 17 mL/min/kg | 0.042 | 0.008 | 72% | Cc1nnc2ccc(C(=O)NC3CN(c4ncc(C#N)cc4Cl)C3)cc2c1C
0.038 | 0.02 | 0.09 | 34 mL/min/kg | 17 mL/min/kg | 0.023 | 0.012 | 74% | COc1cc(N2CC(NC(=O)c3ccc4nnc(C)c(C)c4c3)C2)c(Cl)cn1
0.048 | 0.29 | 0.12 | 79 mL/min/kg | 17 mL/min/kg | 0.036 | 0.015 | 80% | Cc1nnc2ccc(C(=O)NC3CN(c4ncc(F)cc4Cl)C3)cc2c1C

From ChEMBL document CHEMBL4359924, “Discovery of a novel 3,4-dimethylcinnoline carboxamide M4 positive allosteric modulator (PAM) chemotype via scaffold hopping” (Bioorg Med Chem Lett, 2019)
